Data from patent publication US6737383B1, “Herbicidal oxadiazolidines” (priority 1999, dated 2004).

Tests used:
crabgrass = assay: Test B pre/postemergence crabgrass; assay type: in vivo, Digitaria sanguinalis
Summary of the method: (§1)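 Herbicidal effect was estimated by eye on a ten-point control scale after plants spent twelve to sixteen days in a greenhouse following soil or foliar treatment. Foliar sprays targeted plants at one to four leaves; all doses were formulated in a non-phytotoxic solvent with surfactant.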

velvetleaf = assay: Test B pre/postemergence velvetleaf; assay type: in vivo, Abutilon theophrasti
Summary of the method: as §1

rice = assay: Test B flood test rice; assay type: in vivo, Oryza sativa
Summary of the method: (§2)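 Plants were grown to the 2-leaf stage before treatment with test chemical, then held in a greenhouse for twelve to sixteen days. Injury was visually rated against untreated controls on a 0–10 scale, where 0 is no effect and 10 is complete control.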

wheat = assay: Test B pre/postemergence wheat; assay type: in vivo, Triticum aestivum
Summary of the method: as §1

giant foxtail = assay: Test B pre/postemergence giant foxtail; assay type: in vivo, Setaria faberii
Summary of the method: as §1

corn = assay: Test B pre/postemergence corn; assay type: in vivo, Zea mays
Summary of the method: as §1

purple nutsedge = assay: Test B pre/postemergence purple nutsedge; assay type: in vivo, Cyperus rotundus
Summary of the method: as §1

smallflower flatsedge = assay: Test B flood test smallflower flatsedge; assay type: in vivo, Cyperus difformis
Summary of the method: as §2

morningglory = assay: Test B pre/postemergence morningglory; assay type: in vivo, Ipomoea hederacea
Summary of the method: as §1

wild oat = assay: Test B pre/postemergence wild oat; assay type: in vivo, Avena fatua
Summary of the method: as §1

cocklebur = assay: Test B pre/postemergence cocklebur; assay type: in vivo, Xanthium strumarium
Summary of the method: as §1

bamyardgrass = assay: Test B flood test barnyardgrass; assay type: in vivo, Echinochloa crus-galli
Summary of the method: as §2

bedstraw = assay: Test B pre/postemergence bedstraw; assay type: in vivo, Galium aparine; details: Preemergence
Summary of the method: as §1

blackgrass = assay: Test B pre/postemergence blackgrass; assay type: in vivo, Alopecurus myosuroides
Summary of the method: as §1

duck salad = assay: Test B flood test duck salad; assay type: in vivo, Heteranthera limosa
Summary of the method: as §2

surinam grass = assay: Test B pre/postemergence surinam grass; assay type: in vivo, Brachiaria decumbens
Summary of the method: as §1

[1] = Postemergence, Rate 31 g/ha, visual rating, scale 0 to 10 (0 no effect, 10 complete control)
[2] = Postemergence, Rate 125 g/ha, scale 0 to 10, 0 is no effect, 10 is complete control
[3] = Postemergence, Rate 250 g/ha, scale 0 to 10
[4] = Preemergence, Rate 31 g/ha, visual rating, scale 0 to 10 (0 no effect, 10 complete control)
[5] = Preemergence, Rate 62 g/ha, scale of 0 to 10 where 0 is no effect and 10 is complete control
[6] = Preemergence, Rate 125 g/ha, scale 0 to 10, 0 is no effect, 10 is complete control
[7] = Preemergence, Rate 250 g/ha, scale 0 to 10, 0 is no effect, 10 is complete control
[8] = Rate 62 g/ha, Postemergence, scale 0 to 10, 0 no effect, 10 complete control
[9] = Rate 31 g/ha, Pre-emergence section (flood test species), scale 0 to 10
[10] = Rate 62 g/ha, flood test species, Pre-emergence, visual evaluation after twelve to sixteen days
[11] = Rate 125 g/ha, under heading Pre-emergence, flood test species, visual evaluation after twelve to sixteen days
[12] = Rate 250 g/ha, Pre-emergence (flood test species), scale 0 to 10, 0 is no effect, 10 is complete control

CC(C)N(C(=O)n1oc(=O)n(CC[N+](=O)[O-])c1=O)c1ccc(Cl)cc1 [Compound 483]
0: Crabgrass plant response rating (crabgrass; [1]) | Crabgrass plant response rating (crabgrass; [2]) | Crabgrass plant response rating (crabgrass; [3]) | Crabgrass plant response rating (crabgrass; [4]) | Plant response rating, Crabgrass (crabgrass; [5]) | Crabgrass plant response rating (crabgrass; [6]) | Crabgrass plant response rating (crabgrass; [7]) | Crabgrass plant response rating (crabgrass; [8]) | Velvetleaf plant response rating (velvetleaf; [1]) | Velvetleaf plant response rating (velvetleaf; [2]) | Velvetleaf plant response rating (velvetleaf; [3]) | Plant response rating, Velvetleaf (velvetleaf; [5]) | Velvetleaf plant response rating (velvetleaf; [6]) | Velvetleaf plant response rating (velvetleaf; [7]) | Velvetleaf plant response rating (velvetleaf; [8]) | Rice plant response rating (rice; [9]) | Plant response rating, Rice (0 to 10 scale, 0 is no effect, 10 is complete control) (rice; [10]) | Rice plant response rating (0 to 10 scale, 0 is no effect, 10 is complete control) (rice; [11]) | Rice plant response rating (rice; [12]) | Wheat plant response rating (wheat; [1]) | Wheat plant response rating (wheat; [2]) | Wheat plant response rating (wheat; [3]) | Plant response rating, Wheat (wheat; [5]) | Wheat plant response rating (wheat; [6]) | Wheat plant response rating (wheat; [7]) | Wheat plant response rating (wheat; [8]) | Giant foxtail plant response rating (giant foxtail; [1]) | Giant foxtail plant response rating (giant foxtail; [2]) | Giant foxtail plant response rating (giant foxtail; [3]) | Giant foxtail plant response rating (giant foxtail; [4]) | Plant response rating, Giant foxtail (giant foxtail; [5]) | Giant foxtail plant response rating (giant foxtail; [6]) | Giant foxtail plant response rating (giant foxtail; [7]) | Giant foxtail plant response rating (giant foxtail; [8]) | Corn plant response rating (corn; [1]) | Corn plant response rating (corn; [2]) | Corn plant response rating (corn; [3]) | Corn plant response rating (corn; [4]) | Plant response rating, Corn (corn; [5]) | Corn plant response rating (corn; [6]) | Corn plant response rating (corn; [7]) | Corn plant response rating (corn; [8]) | Nutsedge plant response rating (purple nutsedge; [1]) | Nutsedge plant response rating (purple nutsedge; [2]) | Nutsedge plant response rating (purple nutsedge; [3]) | Plant response rating, Nutsedge (purple nutsedge; [5]) | Nutsedge plant response rating (purple nutsedge; [6]) | Nutsedge plant response rating (purple nutsedge; [7]) | Nutsedge plant response rating (purple nutsedge; [8]) | S. Flatsedge plant response rating (smallflower flatsedge; [9]) | Plant response rating, S. Flatsedge (0 to 10 scale, 0 is no effect, 10 is complete control) (smallflower flatsedge; [10]) | S. Flatsedge plant response rating (0 to 10 scale, 0 is no effect, 10 is complete control) (smallflower flatsedge; [11]) | S. Flatsedge plant response rating (smallflower flatsedge; [12]) | Morningglory plant response rating (morningglory; [1]) | Morningglory plant response rating (morningglory; [2]) | Morningglory plant response rating (morningglory; [3]) | Plant response rating, Morningglory (morningglory; [5]) | Morningglory plant response rating (morningglory; [6]) | Morningglory plant response rating (morningglory; [7]) | Morningglory plant response rating (morningglory; [8]) | Wild oats plant response rating (wild oat; [1]) | Wild oats plant response rating (wild oat; [2]) | Wild oats plant response rating (wild oat; [3]) | Plant response rating, Wild oats (wild oat; [5]) | Wild oats plant response rating (wild oat; [6]) | Wild oats plant response rating (wild oat; [7]) | Wild oats plant response rating (wild oat; [8]) | Cocklebur plant response rating (cocklebur; [1]) | Cocklebur plant response rating (cocklebur; [2]) | Cocklebur plant response rating (cocklebur; [3]) | Cocklebur plant response rating (cocklebur; [4]) | Plant response rating, Cocklebur (cocklebur; [5]) | Cocklebur plant response rating (cocklebur; [6]) | Cocklebur plant response rating (cocklebur; [7]) | Cocklebur plant response rating (cocklebur; [8]) | Barnyardgrass plant response rating (bamyardgrass; [9]) | Plant response rating, Barnyardgrass (0 to 10 scale, 0 is no effect, 10 is complete control) (bamyardgrass; [10]) | Barnyardgrass plant response rating (0 to 10 scale, 0 is no effect, 10 is complete control) (bamyardgrass; [11]) | Barnyardgrass plant response rating (bamyardgrass; [12]) | Bedstraw plant response rating (bedstraw; Rate 31 g/ha, visual rating, scale 0 to 10 (0 no effect, 10 complete control)) | Plant response rating, Bedstraw (bedstraw; Rate 62 g/ha, scale of 0 to 10 where 0 is no effect and 10 is complete control) | Bedstraw plant response rating (bedstraw; Rate 125 g/ha, scale 0 to 10, 0 is no effect, 10 is complete control) | Bedstraw plant response rating (bedstraw; Rate 250 g/ha, scale 0 to 10, 0 is no effect, 10 is complete control) | Blackgrass plant response rating (blackgrass; [1]) | Blackgrass plant response rating (blackgrass; [2]) | Blackgrass plant response rating (blackgrass; [3]) | Blackgrass plant response rating (blackgrass; [4]) | Plant response rating, Blackgrass (blackgrass; [5]) | Blackgrass plant response rating (blackgrass; [6]) | Blackgrass plant response rating (blackgrass; [7]) | Blackgrass plant response rating (blackgrass; [8]) | Ducksalad plant response rating (duck salad; [9]) | Plant response rating, Ducksalad (0 to 10 scale, 0 is no effect, 10 is complete control) (duck salad; [10]) | Ducksalad plant response rating (0 to 10 scale, 0 is no effect, 10 is complete control) (duck salad; [11]) | Ducksalad plant response rating (duck salad; [12]) | B. signalgrass plant response rating (surinam grass; [1]) | B. signalgrass plant response rating (surinam grass; [2]) | B. signalgrass plant response rating (surinam grass; Postemergence, Rate 250 g/ha, scale 0 to 10, 0 no effect, 10 complete control) | B. signalgrass plant response rating (surinam grass; [4]) | Plant response rating, B. signalgrass (surinam grass; [5]) | B. signalgrass plant response rating (surinam grass; [6]) | B. signalgrass plant response rating (surinam grass; [7]) | B. signalgrass plant response rating (surinam grass; [8])
